From patent US11059795B2, “Androgen receptor modulators and methods for their use” (ESSA Pharma, Inc., priority 2018, dated 2021) come the findings set out here.

Counter-ions that a name gives are not always drawn.

The nature of data set [1]: Microsomal stability assay, human liver microsomes. The conditions noted are these: pH 7.4, 1 μM compound, 0.5 mg/mL protein, 37° C., read-out: HLM +/− NADPH: Clint (μL/min/mg protein). The class given is in vitro ADME. Here is the method:
(§1) Microsomal stability assay is a widely used in vitro model to characterize the metabolic conversion by phase I enzymes, such as cytochrome P450 (CYP) enzymes. Since metabolism is known to be highly variable in different species, microsomal stability assay is commonly run in multiple species. Metabolic stability of testing compound can be evaluated using human, rat, mouse, or other animal liver or intestine microsomes to predict intrinsic clearance.
(§2) The assay was carried out in 96-well microtiter plates at 37° C. Reaction mixtures (25 μL) contained a final concentration of 1 μM test compound, 0.5 mg/mL liver microsomes protein, and 1 mM NADPH and/or 1 mM UDPGA (with alamethicin) in 100 mM potassium phosphate, pH 7.4 buffer with 3 mM MgCl2. The incubation was done with N=1, but duplicate incubation at each time point can be prepared if necessary. At each of the time points (for example, 0, 15, 30, and 60 minutes), 150 μL of quench solution (100% acetonitrile with 0.1% formic acid) with internal standard was transferred to each well. Besides the zero minute controls, mixtures containing the same components except the NADPH can also be prepared as the negative control. Verapamil was included as a positive control to verify assay performance. Plates were sealed, vortexed, and centrifuged at 4° C. for 15 minutes at 4000 rpm. The supernatant is transferred to fresh plates for LC/MS/MS analysis.
(§3) Summarized conditions: [Compound]=[…], [LM]=0.5 mg/mL, [NADPH]=1 mM and/or [UDPGA]=1 mM, Buffer=100 mM Potassium Phosphate, pH 7.4 with 3 mM MgCl2, Time=0, 15, 30, and 60 min, and Temperature=37° C.
(§4) All samples were analyzed on LC/MS/MS using an AB Sciex API 4000 instrument, coupled to a Shimadzu LC-20AD LC Pump system. Analytical samples were separated using a Waters Atlantis T3 dC18 reverse phase HPLC column (20 mm×2.1 mm) at a flow rate of 0.5 mL/min. The mobile phase consisted of 0.1% formic acid in water (solvent A) and 0.1% formic acid in 100% acetonitrile (solvent B).
(§5) The extent of metabolism is calculated as the disappearance of the test compound, compared to the 0-min time incubation. Initial rates are calculated for the compound concentration and used to determine half-life (t½) values and subsequently, the intrinsic clearance (Clint). Clint=(0.693)(1/t½ (min))(g of liver/kg of body weight)(mL incubation/mg of microsomal protein)(45 mg of microsomal protein/g of liver weight)

A further data set has as its target T1, androgen receptor (AR) (Homo sapiens, UniProt P10275, T878A).
T1 construct: LNCaP cells were transiently transfected with the PSA (6.1 kb)-luciferase reporter for 24 h; endogenous in cells; host or cells: LNCaP
T1 sequence (P10275 1-920 T878A): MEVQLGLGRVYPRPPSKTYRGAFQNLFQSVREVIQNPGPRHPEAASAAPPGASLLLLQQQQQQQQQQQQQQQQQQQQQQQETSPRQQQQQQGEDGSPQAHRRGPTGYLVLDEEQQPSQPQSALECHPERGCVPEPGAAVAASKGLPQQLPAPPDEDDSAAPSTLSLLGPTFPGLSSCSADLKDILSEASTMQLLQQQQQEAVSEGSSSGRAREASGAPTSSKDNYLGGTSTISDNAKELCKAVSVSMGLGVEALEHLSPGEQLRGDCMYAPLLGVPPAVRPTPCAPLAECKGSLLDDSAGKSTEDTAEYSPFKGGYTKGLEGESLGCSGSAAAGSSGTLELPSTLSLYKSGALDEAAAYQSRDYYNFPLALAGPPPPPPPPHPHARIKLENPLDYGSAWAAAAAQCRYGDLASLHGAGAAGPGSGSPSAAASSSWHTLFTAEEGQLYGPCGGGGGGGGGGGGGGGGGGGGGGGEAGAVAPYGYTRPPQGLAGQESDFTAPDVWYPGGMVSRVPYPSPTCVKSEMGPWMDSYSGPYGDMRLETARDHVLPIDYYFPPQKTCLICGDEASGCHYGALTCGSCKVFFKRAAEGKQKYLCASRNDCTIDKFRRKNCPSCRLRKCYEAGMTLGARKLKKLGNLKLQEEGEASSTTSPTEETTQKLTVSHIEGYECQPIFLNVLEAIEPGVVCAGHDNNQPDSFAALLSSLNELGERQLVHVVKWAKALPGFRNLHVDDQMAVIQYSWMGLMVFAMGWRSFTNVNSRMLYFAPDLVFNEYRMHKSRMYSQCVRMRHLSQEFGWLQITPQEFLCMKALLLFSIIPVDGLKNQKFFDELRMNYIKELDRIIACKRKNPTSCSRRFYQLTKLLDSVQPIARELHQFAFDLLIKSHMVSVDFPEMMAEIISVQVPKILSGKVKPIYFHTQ
Description: Androgen-induced PSA (6.1 kb)-luciferase reporter assay in LNCaP cells. The data set is classed as cell-based. To be noted: LNCaP cells transfected with PSA (6.1 kb)-luciferase reporter, R1881 1 nM, 24 h; read-out: PSA-Luc IC50 Range. As for the experimental part: The PSA (6.1 kb)-luciferase reporter contains functional AREs (androgen response elements) to which AR binds in response to androgen to induce luciferase activity.
Cells were lysed using Passive Lysis Buffer (Promega) and then collected into V-bottom 96-well tissue culture plates. Lysates were centrifuged at 4° C. for 5 minutes at 3000 rpm. To measure luminescence of LNCaP cell lysates the Firefly Luciferase Assay System (Promega) was employed, according to manufacturer's protocol. Relative luminescence units (RLU) in cell lysates were detected for 10 seconds using Promega GloMax-Multi Detection Luminometer (Promega). Values were normalized to protein content. GraphPad Prism graphing software was used to calculate IC50 values.
Comparisons between treatment and control groups were compared using Two-Way ANOVA with post-hoc Dunnett's and Tukey's tests. Differences were considered statistically significant at P values less than 0.05.

A short description of data set [2]: Microsomal stability assay, mouse liver microsomes. The class given is in vitro ADME. To be noted: mouse, liver microsomes, pH 7.4, mouse liver microsomes, 1 μM compound, 0.5 mg/mL protein, 37° C.; read-out: MLM +30/− NADPH: Clint (μL/min/mg protein). Here is the method: as §1, §2, §3, §4, §5
On the technique in general: Liver microsomes are vesicles of endoplasmic reticulum, rich in cytochrome P450 enzymes.

`CC(C)(c1cc(Cl)c(OCCCl)c(Cl)c1)c1ccc(OCc2ocnc2S(C)(=O)=O)c(C#N)c1` [Compound A30]: the microsomal CLint at 1 μM in data set [1] and in data set [2] was 12 to 48 µL/min/mg throughout. The half-inhibitory concentration (IC50) (commonly the concentration needed to halve the response being measured) at androgen receptor (AR) is 500 to 2000 nM.

Regarding `CC(C)(c1ccc(OCc2ocnc2C#N)cc1)c1cc(Cl)c(OCCCl)c(Cl)c1` [Compound A65], the microsomal CLint at 1 μM in data set [1] and in data set [2] was 12 to 48 µL/min/mg throughout. Also, the 50% inhibitory concentration (IC50) on androgen receptor (AR) fell in the range of 500 to 2000 nM.

Turning to `Cc1cc(C(C)(C)c2ccc(CN3C(=O)N(S(C)(=O)=O)C(C)(C)C3=O)c(C(N)=O)c2)cc(Cl)c1OCCCl` [Compound B9], the microsomal CLint at 1 μM in data set [1] and in data set [2] was 12 to 48 µL/min/mg throughout. The half-inhibitory concentration (IC50) on androgen receptor (AR) was < 500 nM.

On to `CC(C)(c1ccc(OCc2cnc(S(C)(=O)=O)o2)cc1)c1cc(Cl)c(OCCCl)c(Cl)c1` [Compound A57], for which the microsomal CLint at 1 μM in data set [1] is 12 to 48 µL/min/mg; in data set [2], ≥ 48 µL/min/mg. On androgen receptor (AR), the IC50 was < 500 nM.

For the molecule `Cc1nc(S(C)(=O)=O)c(COc2ccc(C(C)(C)c3cc(Cl)c(OCCCl)c(Cl)c3)cc2)o1` [Compound A34], the microsomal CLint at 1 μM in data set [1] is < 12 µL/min/mg; in data set [2] it was 12 to 48 µL/min/mg. Also, the IC50 on androgen receptor (AR) is 500 to 2000 nM.

Take `Cn1c(COc2ccc(C(C)(C)c3cc(Cl)c(OCCCl)c(Cl)c3)cc2)cnc1S(C)(=O)=O` [Compound A78]: the microsomal CLint at 1 μM in data set [1] and in data set [2] was < 12 µL/min/mg each time. In addition, on androgen receptor (AR), the IC50 is 500 to 2000 nM.

As for `CC(C)(c1ccc(CN2C(=O)N(S(C)(=O)=O)C(C)(C)C2=O)cc1)c1cc(Cl)c(OCCCl)c(Cl)c1` [Compound B3, 3-(4-(2-(3,5-Dichloro-4-(2-chloroethoxy)phenyl)propan-2-yl)benzyl)-5,5-dimethyl-1-(methylsulfonyl)imidazolidine-2,4-dione], the microsomal CLint at 1 μM in data set [1] and in data set [2] was < 12 µL/min/mg in each case. For the same molecule, at androgen receptor (AR), the IC50 lay within 500 to 2000 nM.

As for `CC(C)(c1ccc(NCc2ocnc2S(C)(=O)=O)cc1)c1cc(Cl)c(OCCCl)c(Cl)c1` [Compound A32, 4-(2-(3,5-dichloro-4-(2-chloroethoxy)phenyl)propan-2-yl)-N-((4-(methylsulfonyl)oxazol-5-yl)methyl)aniline Hydrochloride], the microsomal CLint at 1 μM in data set [1] is 12 to 48 µL/min/mg; in data set [2], ≥ 48 µL/min/mg. Moreover, at androgen receptor (AR), the IC50 was > 2000 nM.

For `COc1c(Cl)cc(C(C)(C)c2ccc(OCc3coc(NS(C)(=O)=O)n3)cc2)cc1C#N` [Compound A161], the microsomal CLint at 1 μM in data set [1] and in data set [2] was < 12 µL/min/mg in each case.

As for `CC(C)(c1ccc(NC(=O)c2coc(NS(C)(=O)=O)n2)cc1)c1cc(Cl)c(OCCCl)c(Cl)c1` [Compound A49, N-(4-(2-(3,5-Dichloro-4-(2-chloroethoxy)phenyl)propan-2-yl)phenyl)-2-(methylsulfonamido)oxazole-4-carboxamide], the microsomal CLint at 1 μM was 12 to 48 µL/min/mg in data set [1] and < 12 µL/min/mg in data set [2]. Besides, the concentration for half-maximal inhibition (IC50) at androgen receptor (AR) was > 2000 nM.

As for `CN1C(=O)N(Cc2ccc(C(C)(C)c3cc(Cl)c(OCCCCl)c(Cl)c3)cc2)C(=O)C1(C)C` [Compound B1], the microsomal CLint at 1 μM in data set [1] is 12 to 48 µL/min/mg; in data set [2], ≥ 48 µL/min/mg. For the same molecule, the IC50 on androgen receptor (AR) is 500 to 2000 nM.

As to `CC(C)(c1ccc(N2C(=O)N(S(C)(=O)=O)C(C)(C)C2=O)cc1)c1cc(Cl)c(OCCCl)c(Cl)c1` [Compound B7], the microsomal CLint at 1 μM in data set [1] and in data set [2] was < 12 µL/min/mg throughout. The IC50 on androgen receptor (AR) is > 2000 nM.

As for `CC(C)(c1ccc(OCc2nc(C#N)co2)cc1)c1cc(Cl)c(OCCCl)c(C#N)c1` [Compound A174], the figures for the microsomal CLint at 1 μM in data set [1] and in data set [2] were < 12 µL/min/mg and 12 to 48 µL/min/mg, respectively. For the same molecule, the IC50 on androgen receptor (AR) is 500 to 2000 nM.

For `CC(C)(c1ccc(OCc2coc(S(C)(=O)=O)n2)cc1)c1cc(Cl)c(OCCCl)c(Cl)c1` [Compound A68], the microsomal CLint at 1 μM in data set [1] and in data set [2] was < 12 µL/min/mg in each case. For the same molecule, the concentration for half-maximal inhibition (IC50) on androgen receptor (AR) was < 500 nM.

Consider `CC(C)(c1ccc(C(=O)Nc2ccnc(NS(C)(=O)=O)n2)cc1)c1cc(Cl)c(OCCCl)c(Cl)c1` [Compound A189], for which the microsomal CLint at 1 μM in data set [1] and in data set [2] was < 12 µL/min/mg each time. The IC50 on androgen receptor (AR) is 500 to 2000 nM.

As for `CC(C)(c1cnc(NCc2ocnc2S(C)(=O)=O)nc1)c1cc(Cl)c(OCCCl)c(Cl)c1` [Compound A27], the values for the microsomal CLint at 1 μM in data set [1] and in data set [2] were < 12 µL/min/mg and ≥ 48 µL/min/mg, respectively. Besides, on androgen receptor (AR), the IC50 was > 2000 nM.

As to `CC(C)(c1ccc(OCc2nc(C(N)=O)co2)cc1)c1cc(Cl)c(OCCCl)c(C#N)c1` [Compound A173], the microsomal CLint at 1 μM in data set [1] and in data set [2] was < 12 µL/min/mg throughout. Also, on androgen receptor (AR), the half-inhibitory concentration (IC50) was > 2000 nM.

Turning to `CC(C)(c1ccc(Nc2ncc(CNS(C)(=O)=O)o2)cc1)c1cc(Cl)c(OCCCl)c(Cl)c1` [Compound A75, N-((2-((4-(2-(3,5-Dichloro-4-(2-chloroethoxy)phenyl)propan-2-yl)phenyl)amino)oxazol-5-yl)methyl)methanesulfonamide], in data set [1], the microsomal CLint at 1 μM was < 12 µL/min/mg. Also, the 50% inhibitory concentration (IC50) at androgen receptor (AR) lay within 500 to 2000 nM.

`CN1C(=O)N(Cc2ccc(C(C)(C)c3cc(Cl)c(OCCCl)c(Cl)c3)cc2C#N)C(=O)C1(C)C` [Compound B8]: in data set [1], the microsomal CLint at 1 μM was ≥ 48 µL/min/mg. For the same molecule, the IC50 on androgen receptor (AR) was 500 to 2000 nM.

As to `CC(C)(c1ccc(OCc2nccc(NS(C)(=O)=O)n2)cc1)c1cc(Cl)c(OCCCl)c(Cl)c1` [Compound A42], the microsomal CLint at 1 μM in data set [1] and in data set [2] was < 12 µL/min/mg throughout. Moreover, the IC50 on androgen receptor (AR) lay in the range of 500 to 2000 nM.

`CC(C)(C)N(c1ccc(OCc2ocnc2S(C)(=O)=O)cc1)c1cc(Cl)c(OCCCl)c(Cl)c1` [Compound A31, N-tert-Butyl-3,5-dichloro-4-(2-chloroethoxy)-N-[4-[(4-methylsulfonyloxazol-5-yl)-methoxy]-phenyl]aniline]: in data set [1], the microsomal CLint at 1 μM lay in the range of 12 to 48 µL/min/mg. The IC50 on androgen receptor (AR) is < 500 nM.

`CC(C)(c1ccc(-n2cnc(CNS(C)(=O)=O)c2)cc1)c1cc(Cl)c(OCCCl)c(Cl)c1` [Compound A24]: the microsomal CLint at 1 μM in data set [1] is < 12 µL/min/mg. On androgen receptor (AR), the half-inhibitory concentration (IC50) lay in the range of 500 to 2000 nM.
